The values below come from ChEMBL document CHEMBL1201862, “PubChem BioAssay data set” (2004).

Test systems include MDA-N; HCT-116; 786-0; HOP-92; SW-620; A549; SK-OV-3; Malme-3M; NCI-H226; SK-MEL-5; NCI/ADR-RES; M14; Hs-578T; SNB-19; HOP-62; SK-MEL-28; CAKI-1; SF-268; COLO 205; SNB-75.
Common to all, as to experiment: growth of human tumour cells (NCI), 48 h

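Briefly, cells in 96-well plates were exposed to five compound concentrations for 48 h, and endpoints were estimated by linear interpolation. GI50 marks 50% less growth.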 Calls of active or inactive are those of the source. Cut-off read from the data, not from the text of the source: active = GI50 up to about 1.1 µM and inactive = higher.

On to `Cc1cc(C)c2c(=O)n(CN3CC4Nc5ccccc5C4C3)sc2n1` (centres undefined), for which the GI50 in the assay with MDA-N was 19.5 µM (inactive); in the assay on HCT-116, 20.4 µM (inactive); in the assay with 786-0 it was 17.2 µM (inactive); in the assay on HOP-92 it was 38.5 µM (inactive); in the assay with SW-620, 22.8 µM (inactive); with A549 it was 38.5 µM (inactive). For the same compound, the GI50 in the assay with SK-OV-3 is 56 µM (inactive); with Malme-3M, 11.7 µM (inactive); in the assay with NCI-H226, 20.8 µM (inactive); with SK-MEL-5 it was 30.2 µM (inactive); with NCI/ADR-RES, 35.6 µM (inactive); in the assay on M14, 23.8 µM (inactive). In addition, the GI50 is 16.6 µM (inactive) in the assay on Hs-578T; 65.9 µM (inactive) with SNB-19; 35.6 µM (inactive) in the assay with HOP-62; 22.1 µM (inactive) in the assay with SK-MEL-28; 21 µM (inactive) in the assay with CAKI-1; 14.8 µM (inactive) in the assay on SF-268. Further, in the assay with COLO 205, the GI50 is 26.1 µM (inactive).

Regarding `CC1(CCC2C=CCC2)CCCNC1=S` (centres undefined), the GI50 in the assay on MDA-N, in the assay with SNB-75, in the assay on HCT-116, in the assay with 786-0, with HOP-92 and in the assay on SW-620 was > 10 µM (inactive) each time. Besides, the GI50 in the assay with A549, with SK-OV-3, with Malme-3M, with NCI-H226, with SK-MEL-5 and in the assay on M14 was > 10 µM (inactive) in each case. The GI50 with Hs-578T, in the assay with SNB-19, in the assay on HOP-62, in the assay with SK-MEL-28 and in the assay with SF-268 was > 10 µM (inactive) each time.

As for `COc1cc2c(c(OC)c1)/C(=C/Sc1ccccc1)C(=O)N(C(C)(C)C)C2`, the GI50 in the assay with MDA-N is 23.5 µM (inactive); in the assay on HCT-116, 16.4 µM (inactive); in the assay with 786-0, 28.5 µM (inactive); with HOP-92 it was 1.41 µM (inactive); in the assay on SW-620, 38 µM (inactive); in the assay with SK-OV-3, 14.2 µM (inactive). The GI50 is 51.6 µM (inactive) in the assay on NCI-H226; 17.5 µM (inactive) in the assay with SK-MEL-5; 11.7 µM (inactive) in the assay on NCI/ADR-RES; 27.5 µM (inactive) in the assay with HOP-62; 38.9 µM (inactive) in the assay on SK-MEL-28; 32.7 µM (inactive) with CAKI-1. For the same compound, the GI50 is 14.1 µM (inactive) with SF-268 and 26.2 µM (inactive) with COLO 205.

Take `COC(=O)[C@@H](OC(C)=O)[C@@H](OC(C)=O)c1nnc2ccc(Cl)nn12`: the GI50 in the assay with MDA-N, in the assay on HCT-116, in the assay with 786-0, with SW-620, with A549 and with SK-OV-3 was > 100 µM (inactive) each time. Besides, the GI50 in the assay on Malme-3M, with SK-MEL-5, with NCI/ADR-RES, in the assay with M14, in the assay with Hs-578T and in the assay with SNB-19 was > 100 µM (inactive) each time. The GI50 with HOP-62 is > 100 µM (inactive); with SK-MEL-28, 97.7 µM (inactive); in the assay on CAKI-1, 92 µM (inactive); with SF-268, > 100 µM (inactive); in the assay on COLO 205 it was > 100 µM (inactive).

For the compound `O=C(/C=C/c1ccccc1Cl)c1ccc(Cl)cc1Cl`, the GI50 with SNB-75 is 18.7 µM (inactive); in the assay on HCT-116, 8.47 µM (inactive); with 786-0, 16.6 µM (inactive); with HOP-92 it was 21 µM (inactive); with SW-620, 1.74 µM (inactive); with A549 it was 21.3 µM (inactive). Also, the GI50 in the assay with SK-OV-3 was 19.4 µM (inactive); in the assay with Malme-3M, 18.9 µM (inactive); in the assay on NCI-H226, 15.7 µM (inactive); in the assay with SK-MEL-5, 15.3 µM (inactive); with M14, 18.1 µM (inactive); in the assay with SNB-19, 15.5 µM (inactive). Also, the GI50 in the assay on HOP-62 is 23.2 µM (inactive); with SK-MEL-28 it was 11.6 µM (inactive); in the assay on CAKI-1, 14.4 µM (inactive); with SF-268, 15 µM (inactive); with COLO 205, 18.1 µM (inactive).

Regarding `CN1CCCN(C)CCCN(C)CCCN(C)CCC1`, the GI50 in the assay with MDA-N, in the assay on HCT-116, in the assay on 786-0, with SW-620, with A549 and in the assay with SK-OV-3 was > 100 µM (inactive) in each case. The GI50 with Malme-3M, in the assay with NCI-H226, in the assay on SK-MEL-5, in the assay with NCI/ADR-RES, in the assay with M14 and in the assay with Hs-578T was > 100 µM (inactive) each time. Also, the GI50 in the assay on SNB-19, in the assay on HOP-62, in the assay on SK-MEL-28, with CAKI-1, in the assay on SF-268 and in the assay with COLO 205 was > 100 µM (inactive) each time.

For `O=C(CCCCCCCCCCc1ccccc1)c1c(O)cccc1O`, the GI50 in the assay with SNB-75 is 29 µM (inactive); with HCT-116, 22.7 µM (inactive); in the assay with 786-0, 17.7 µM (inactive); in the assay on HOP-92, 23.5 µM (inactive); in the assay with SW-620, 19.5 µM (inactive); in the assay on A549, 27.7 µM (inactive). Besides, the GI50 with SK-OV-3 is 44.8 µM (inactive); in the assay with Malme-3M, 17.9 µM (inactive); in the assay with NCI-H226 it was 21.2 µM (inactive); in the assay on SK-MEL-5, 16.1 µM (inactive); with M14 it was 20 µM (inactive); in the assay on SNB-19 it was 20.2 µM (inactive). The GI50 in the assay on HOP-62 was 20.8 µM (inactive); in the assay on SK-MEL-28 it was 20 µM (inactive); with CAKI-1, 29.5 µM (inactive); in the assay with SF-268 it was 23.8 µM (inactive); in the assay on COLO 205, 23.8 µM (inactive).

Take `CCCCCCCCCCCC1CC(=O)NCCCN(C)CCCCN(C)CCCN1C` (centres undefined) [BUDMUNCHIAMINE A]: the GI50 with SNB-75 was 1.59 µM (inactive); in the assay with HCT-116, 1.55 µM (inactive); with 786-0, 1.55 µM (inactive); in the assay on HOP-92, 1.39 µM (inactive); with SW-620 it was 1.06 µM (active); in the assay on A549, 1.76 µM (inactive). Further, the GI50 was 1.8 µM (inactive) with SK-OV-3; 1.9 µM (inactive) with Malme-3M; 1.93 µM (inactive) with NCI-H226; 1.97 µM (inactive) in the assay on SK-MEL-5; 1.8 µM (inactive) in the assay with M14; 1.7 µM (inactive) in the assay with SNB-19. Further, the GI50 is 1.66 µM (inactive) in the assay with HOP-62; 1.69 µM (inactive) with SK-MEL-28; 2.08 µM (inactive) in the assay with CAKI-1; 1.85 µM (inactive) with SF-268; 1.53 µM (inactive) with COLO 205.

Turning to `COC(=O)c1c(CC(=O)OC(C)C)cc2n(c1=O)Cc1c-2nc2ccccc2c1OC`, the GI50 was 27 µM (inactive) in the assay on SNB-75; > 100 µM (inactive) in the assay with HCT-116; > 100 µM (inactive) in the assay with 786-0; 45.6 µM (inactive) in the assay on HOP-92; > 100 µM (inactive) in the assay on SW-620; > 100 µM (inactive) in the assay on A549. For the same compound, the GI50 in the assay with SK-OV-3 is > 100 µM (inactive); in the assay on Malme-3M, > 100 µM (inactive); in the assay on NCI-H226, 99.1 µM (inactive); in the assay with SK-MEL-5 it was > 100 µM (inactive); with M14, > 100 µM (inactive); in the assay on SNB-19 it was > 100 µM (inactive). Besides, the GI50 in the assay with HOP-62, in the assay with SK-MEL-28, in the assay with CAKI-1, in the assay with SF-268 and with COLO 205 was > 100 µM (inactive) each time.

Turning to `O=Nn1c2ccccc2c2ccccc21`, the GI50 in the assay with SNB-75 is 75 µM (inactive); in the assay with HCT-116, 85.9 µM (inactive); with 786-0, 95.1 µM (inactive); in the assay with HOP-92 it was 66.2 µM (inactive); in the assay on SW-620, 66.8 µM (inactive); in the assay on A549, 17.5 µM (inactive). Also, the GI50 is 84.5 µM (inactive) in the assay on SK-OV-3; 93.3 µM (inactive) in the assay on Malme-3M; 55.5 µM (inactive) in the assay with NCI-H226; 63.1 µM (inactive) in the assay on SK-MEL-5; 52.8 µM (inactive) with NCI/ADR-RES; 74.1 µM (inactive) in the assay on M14. The GI50 in the assay on Hs-578T was 46.2 µM (inactive); in the assay on SNB-19 it was 88.9 µM (inactive); in the assay on HOP-62, > 100 µM (inactive); in the assay on SK-MEL-28, > 100 µM (inactive); with CAKI-1, 44.4 µM (inactive); in the assay with SF-268 it was > 100 µM (inactive). For the same compound, the GI50 with COLO 205 was 14.1 µM (inactive).

For the compound `c1ccc(CNc2ccc3[nH]c4cnccc4c3c2)cc1`, the GI50 in the assay with SNB-75 was 6.89 µM (inactive); in the assay with HCT-116, 17.5 µM (inactive); in the assay on 786-0, 15.3 µM (inactive); with HOP-92, 15.6 µM (inactive); in the assay on SW-620, 19.9 µM (inactive); in the assay on A549, 17.9 µM (inactive). The GI50 in the assay on SK-OV-3 was 18.8 µM (inactive); in the assay with Malme-3M it was 16.9 µM (inactive); in the assay on NCI-H226, 19.1 µM (inactive); with SK-MEL-5 it was 15.2 µM (inactive); in the assay on M14, 18 µM (inactive); in the assay on SNB-19, 16 µM (inactive). Besides, the GI50 in the assay with HOP-62 was 17.2 µM (inactive); in the assay with SK-MEL-28, 13.6 µM (inactive); in the assay on CAKI-1 it was 16.2 µM (inactive); in the assay on SF-268, 16.4 µM (inactive); in the assay on COLO 205, 15.9 µM (inactive).
